One assay relates to scrapie. The conditions noted are these: mice infected with scrapie; cited from earlier work.
The subject of the next assay is cell growth. Put plainly: Inhibition of cell growth. The class given is cell-based.
Assay [1] concerns MLV reverse transcriptase. The note with it: previously described; cited from earlier work.
In assay [2] the test system is spontaneous mammary tumors. The conditions noted are these: C3 HBi mice; cited from earlier work.
Assay [3] has as its target T1, LAV purified reverse transcriptase (Human immunodeficiency virus type 1 group M subtype B, UniProt P03367).
T1 construct: made in house
In words: Reverse transcriptase assay, LAV purified RT. Format: biochemical, Lymphadenopathy associated virus (LAV). The note with it: for p. mole incorporated: control 0.11. The protocol: LAV RT was purified. Briefly, 10^9 LAV infected cells were washed two times in PBS, resuspended in Tris 50 mM (pH 7.5) KCl 500 mM, ethylene diamine tetracetic acid (EDTA) 0.1 mM, dithiothreitol 1 mM and glycerol 10 percent, and frozen in liquid nitrogen. After incubation with Triton X100 0.01 percent at 37° C. (15 Min), cell homogenates were centrifuged at 100,000 g for one hour and the supernatant dialyzed six hours (KCl 100 mM). The dialyzate was chromatographed on a phosphocellulse column. RT and DNA polymerases were eluted from the column with a 0.1M to 1M KCl gradient.
Assay mixtures are indicated in the legend of Table I. The reaction was stopped by treating the mixtures with sodium pyrophosphate and trichloracetic acid. The results are given as picomoles of tritiated deoxyribonucleotides monophosphate incorporated into DNA after 1 hour at 37° C.
HPA 23 inhibition of reverse transcriptase of SAIDS virus and LAV.
Reaction mixture (50 μl) contains: Tris 50 mM pH 7.9, 5 mM MgCl2,
OD/ml Oligo dT 12-18, and 200 pM ^3 HTTP (25 Ci/mM).

As for “Ammonium-9-antimonio-III-21-tungsto-VII-sodate [HPA 23]”, the “disease / incubation period” value in the assay on scrapie is reported as “can prevent disease or prolong the incubation period”. Moreover, the “dose required to inhibit the cell growth relative to the one blocking RT activity” value in the assay with cell growth is on record as “twenty times higher”. Further, in assay [1], the “inhibition of MLV reverse transcriptase” value is “competitive inhibitor”. For the same substance, the “occurrence of spontaneous mammary tumors” value in assay [2] is given as “reduces the occurance of spontaneous mammary tumors”. In assay [3] (1 hour at 37° C.), this substance returned an ID50 of 11 µg/mL. Moreover, the Percent inhibition in assay [3] (inhibitor 0.5 μg/ml) is reported as 4.5%; in assay [3] (inhibitor 1 μg/ml) it was 8.2%; in assay [3] (inhibitor 5 μg/ml), 33.6%; in assay [3] (inhibitor 10 μg/ml), 43.6%; in assay [3] (inhibitor 20 μg/ml), 61.8%; in assay [3] (inhibitor 30 μg/ml), 70.2%. The Percent inhibition in assay [3] (inhibitor 60 μg/ml) stood at 94%; in assay [3] (inhibitor 100 μg/ml), 100%. The p. mole incorporated in assay [3] (inhibitor 0.5 μg/ml) was determined as 0.105 p. mole; in assay [3] (inhibitor 1 μg/ml) it was 0.101 p. mole; in assay [3] (inhibitor 5 μg/ml), 0.073 p. mole; in assay [3] (inhibitor 10 μg/ml), 0.062 p. mole; in assay [3] (inhibitor 20 μg/ml), 0.042 p. mole; in assay [3] (inhibitor 30 μg/ml), 0.032 p. mole. The values for the p. mole incorporated in assay [3] (inhibitor 60 μg/ml) and in assay [3] (inhibitor 100 μg/ml) were 0.007 p. mole and 0 p. mole, respectively.

The values are drawn from patent US4759929A, “Novel treatment” (Cabinet Harle & Phelip, priority 1987, dated 1988).
